Laboratory results reported in ChEMBL document CHEMBL3997821, “Design, synthesis and evaluation of novel pyrazolo-pyrimido[4,5-d]pyrimidine derivatives as potent antibacterial and biofilm inhibitors” (Bioorg Med Chem Lett, 2017).
Values after ≈ are worked out from the molar mass of the structure shown. Active and inactive are the calls of the source. The rule behind the calls is not given here.

Key:
Bacillus subtilis [1] = experiment: Antibacterial activity against Bacillus subtilis MTCC 121 after 24 hrs by well diffusion method; format: functional; settings: MTCC 121, 24 h
Staphylococcus aureus [2] = experiment: Antibacterial activity against Staphylococcus aureus MTCC 96 after 24 hrs by well diffusion method; format: functional; settings: MTCC 96, 24 h
Staphylococcus aureus [3] = experiment: Antibacterial activity against Staphylococcus aureus MLS16 MTCC 2940 after 24 hrs by well diffusion method; format: functional; settings: MLS16 MTCC 2940, 24 h
Micrococcus luteus [4] = experiment: Antibacterial activity against Micrococcus luteus MTCC 2470 after 24 hrs by well diffusion method; format: functional; settings: MTCC 2470, 24 h
Raoultella planticola = experiment: Antibacterial activity against Klebsiella planticola MTCC 530 after 24 hrs by well diffusion method; format: functional; settings: MTCC 530, 24 h
Escherichia coli = experiment: Antibacterial activity against Escherichia coli MTCC 739 after 24 hrs by well diffusion method; format: functional; settings: MTCC 739, 24 h
Pseudomonas aeruginosa = experiment: Antibacterial activity against Pseudomonas aeruginosa MTCC 2453 after 24 hrs by well diffusion method; format: functional; settings: MTCC 2453, 24 h
Staphylococcus aureus [5] = experiment: Bactericidal activity against Staphylococcus aureus MTCC 96 after 24 hrs by serial dilution method; format: functional; settings: MTCC 96, 24 h
Bacillus subtilis [6] = experiment: Bactericidal activity against Bacillus subtilis MTCC 121 after 24 hrs by serial dilution method; format: functional; settings: MTCC 121, 24 h
Staphylococcus aureus [7] = experiment: Bactericidal activity against Staphylococcus aureus MLS16 MTCC 2940 after 24 hrs by serial dilution method; format: functional; settings: MLS16 MTCC 2940, 24 h
Micrococcus luteus [8] = experiment: Bactericidal activity against Micrococcus luteus MTCC 2470 after 24 hrs by serial dilution method; format: functional; settings: MTCC 2470, 24 h
Staphylococcus aureus [9] = experiment: Ratio of MBC to MIC for Staphylococcus aureus MTCC 96; format: functional
Micrococcus luteus [10] = experiment: Ratio of MBC to MIC for Micrococcus luteus MTCC 2470; format: functional
Staphylococcus aureus [11] = experiment: Antibiofilm activity against Staphylococcus aureus MTCC 96 after 24 hrs by crystal violet staining based assay; format: functional; settings: MTCC 96, 24 h
Bacillus subtilis [12] = experiment: Antibiofilm activity against Bacillus subtilis MTCC 121 after 24 hrs by crystal violet staining based assay; format: functional; settings: MTCC 121, 24 h
Staphylococcus aureus [13] = experiment: Antibiofilm activity against Staphylococcus aureus MLS16 MTCC 2940 after 24 hrs by crystal violet staining based assay; format: functional; settings: MLS16 MTCC 2940, 24 h
Micrococcus luteus [14] = experiment: Antibiofilm activity against Micrococcus luteus MTCC 2470 after 24 hrs by crystal violet staining based assay; format: functional; settings: MTCC 2470, 24 h
Micrococcus luteus [15] = experiment: Induction of ROS generation in Micrococcus luteus MTCC 2470 mature biofilms at 0.5 to 2 ug/ml after 24 hrs by DCFH-DA staining based fluorometric assay; format: functional
Micrococcus luteus [16] = experiment: Induction of intracellular ROS accumulation in Micrococcus luteus MTCC 2470 sessile biofilm cells at 0.5 to 4 ug/ml after 24 hrs by DCFH-DA staining-based assay; format: functional, cell-based
Micrococcus luteus [17] = experiment: Induction of membrane permeability in Micrococcus luteus MTCC 2470 assessed as protein leakage at 1 to 2 times antibacterial MIC up to 12 hrs by Bradford protein assay; format: functional
Micrococcus luteus [18] = experiment: Induction of membrane permeability in Micrococcus luteus MTCC 2470 assessed as protein leakage at 1 to 2 times antibacterial MIC after 12 to 24 hrs by Bradford protein assay; format: functional

MIC (Bacillus subtilis [1]): 7.8 µg/mL (≈ 14.5 µM) | MIC (Staphylococcus aureus [2]): 7.8 µg/mL (≈ 14.5 µM) | MIC (Staphylococcus aureus [3]): 7.8 µg/mL (≈ 14.5 µM) | MIC (Micrococcus luteus [4]): 3.9 µg/mL (≈ 7.26 µM) | MIC (Escherichia coli): > 125 µg/mL | MIC (Pseudomonas aeruginosa): > 125 µg/mL | IC50 (Staphylococcus aureus [11]): 3.9 µg/mL (≈ 7.26 µM) | IC50 (Bacillus subtilis [12]): 4.1 µg/mL (≈ 7.63 µM) | IC50 (Staphylococcus aureus [13]): 4.4 µg/mL (≈ 8.19 µM) | IC50 (Micrococcus luteus [14]): 1.8 µg/mL (≈ 3.35 µM)
Compound: Cc1ccc(-c2nn(-c3ccccc3)cc2C2c3c(n(C)c(=O)n(C)c3=O)N=CN2c2ccc(Cl)cc2)cc1 (stereo unspecified)
MIC (Raoultella planticola): > 125 µg/mL | MBC (Staphylococcus aureus [5]): 7.8 µg/mL (≈ 14.5 µM) | MBC (Bacillus subtilis [6]): 7.8 µg/mL (≈ 14.5 µM) | MBC (Staphylococcus aureus [7]): 31.2 µg/mL (≈ 58.1 µM) | MBC (Micrococcus luteus [8]): 15.6 µg/mL (≈ 29 µM) | Ratio (Staphylococcus aureus [9]): 2 | Ratio (Micrococcus luteus [10]): 2 | Activity (Micrococcus luteus [15]): Active | Activity (Micrococcus luteus [16]): Active | Activity (Micrococcus luteus [17]): inactive | Activity (Micrococcus luteus [18]): Active
